{"source": "patent US4329353A", "about": "(priority 1981, dated 1982)", "system": "apomorphine-induced emesis", "assay": "animal or person", "format": "in vivo, beagle dogs", "conditions": "Canis lupus familiaris, sc, 1 h", "note": "Structures can show the parent of a compound that is named as a salt. Where two headings read alike, the source gives them in different places.", "data": [{"molecule": "N#CC1(c2ccc(F)cc2)CCC(N2CCC3(CC2)C(=O)N(C(=O)Nc2ccccc2)CN3c2ccc(F)cc2)CC1", "note": "(centres unmarked) [CONHC6 H5, B, base, (B)-8-[4-cyano-4-(4-fluorophenyl)cyclohexyl]-1-(4-fluorophenyl)-4-oxo-N-phenyl-1,3,8-triazaspiro[4,5]decane-3-carboxamide]", "values": [{"measurement": "ED50", "setting": "read-out: ED50 (APO)-dog", "result": "< 160", "unit": "µg/kg"}]}, {"molecule": "NC(=O)C1(c2ccc(F)cc2)CCC(N2CCC3(CC2)C(=O)NCN3c2ccc(F)cc2)CC1", "note": "(centres unmarked) [CONH2,4-FC6 H4,4-FC6 H4, B, base, (B)-1-(4-fluorophenyl)-4-[1-(4-fluorophenyl)-4-oxo-1,3,8-triazaspiro[4,5]dec-8-yl]cyclohexanecarboxamide]", "values": [{"measurement": "ED50", "setting": "read-out: ED50 (APO)dog", "result": 8, "unit": "µg/kg"}]}, {"molecule": "COC(=O)C1(c2ccc(F)cc2)CCC(N2CCC3(CC2)C(=O)NCN3c2ccc(F)cc2)CC1", "note": "(centres unmarked) [COOCH3,4-FC6 H4,4-FC6 H4, base]", "values": [{"measurement": "ED50", "setting": "read-out: ED50 (APO)dog", "result": 1.8, "unit": "µg/kg"}]}, {"molecule": "CNC(=S)N1CN(c2ccc(F)cc2)C2(CCN(C3CCC(C#N)(c4ccc(F)cc4)CC3)CC2)C1=O", "note": "(centres unmarked) [CSNHCH3, base, (B)-8-[4-cyano-4-(4-fluorophenyl)cyclohexyl]-1-(4-fluorophenyl)-N-methyl-4-oxo-1,3,8-triazaspiro[4,5]decane-3-carbothioamide]", "values": [{"measurement": "ED50", "setting": "read-out: ED50 (APO)-dog", "result": "< 4", "unit": "µg/kg"}]}, {"molecule": "CC(=O)CCN1CN(c2ccc(F)cc2)C2(CCN(C3CCC(C#N)(c4ccc(F)cc4)CC3)CC2)C1=O", "note": "(single isomer, unassigned) [CH2 CH2 COCH3, B, HCl . H2 O]", "values": [{"measurement": "ED50", "setting": "read-out: ED50 (APO)-dog", "result": 2, "unit": "µg/kg"}]}]}
